Reference: patent publication US10370366B2 (Flatley Discovery Lab, LLC, priority 2013, dated 2019)

Biological target: T1, human F508del CFTR (Homo sapiens, UniProt P13569, DEL508-508)
T1 construct: expressed in transfected cells; host or cells: Fisher Rat Thyroid (FRT) cells
Test: CFTR-YFP High Throughput Assay
Type: cell-based
Conditions: FRT cells expressing human F508del CFTR and YFP; for Emax: EMax normalized to the positive control, read-out: % Efficacy
Description: Assays for Detecting and Measuring the Effect of Compounds on F508del-CFTR Channels CFTR-YFP High Throughput Assay-CFTR Corrector Protocol:
This protocol is designed to selectively screen small molecule compounds for F508del CFTR corrector activities in the HTS YFP (yellow fluorescent protein) flux assay. In this protocol, the cells are incubated with testing compounds for 24 hours, washed with PBS, stimulated with forskolin and a standard potentiator, and fluorescence in each plate well is measured kinetically read on a 384-well HTS plate reader, such as the Hamamatsu FDSS-6000.
YFP fluorescence intensity values are acquired at high speed before and after iodide buffer is injected to the assay cells. Iodide enters the cells via active CFTR channels in the plasma membrane, and quenches the YFP fluorescence. The rate of fluorescence quenching is proportionate to the total CFTR activity in the cell membrane. F508del CFTR correctors increase the number of CFTR molecules in the testing cell plasma membrane, and thereby accelerate YFP quenching.
This method was initially developed for bench top plate readers (Galietta et al., 2001), and was adapted to the HTS format (Sui et al. Assay Drug Dev. Technol. 2010).
Fisher Rat Thyroid (FRT) cells stably expressing both human F508del CFTR and a halide-sensitive yellow fluorescent protein (YFP-H148Q/I152L 25,22) (Galietta et al. Am. J. Physiol Cell Physiol 281(5), C1734, 2001) were cultured on plastic surface in Coon's modified Ham's F12 medium supplemented with FBS 10%, L-glutamine 2 mM, penicillin 100 U/ml, and streptomycin 100 µg/ml. G418 (0.75-1.0 mg/ml) and zeocin (3.2 ug/ml) were used for selection of FRT cells expressing F508del CFTR and YFP. For primary screening, FRT cells were plated into 384-well black wall, transparent bottom microtiter plates (Costar; Corning Inc.) at a cell density of 20,000-40,000 per well. Test compound was applied to the cells at varying concentrations ranging from 2 nM-40 μM in either a 2-fold or 3-fold dilution series. Cells were incubated in a cell culture incubator at 37° C. with 5% CO2 for 24-26 h. Assay plates were washed with DPBS media (Thermo, cat# SH30028.02) to remove unbound cells and compound. Stimulation media (25 μL) containing 20 μM Forskolin & 30 μM P3 [6-(Ethyl-phenyl-sulfonyl)-4-oxo-1,4-dihydro-quinoline-3-carboxylic acid 2-methoxy-benzylamide] in Hams F-12 coon's modified media was added to the plate wells and incubated at room temperature for 60-120 min. […] (10 mM HEPES, 1 mM MgCl2, 3 mM KCl, 1 mM CaCl2, 150 mM NaI) was then added and fluorescence quench curves (Excitation 500 nm/Emission 540 nm; exposure 136 ms) were immediately recorded on an FDSS-6000 plate reader (Hamamatsu). Quench rates were derived from least squares fitting of the data as described by Sui et al (2010).
CFTR-YFP High Throughput Assay-CFTR Potentiator Protocol:
This protocol is designed to selectively screen small molecule compounds for F508del CFTR potentiator activities in the HTS YFP flux assay. Such compounds act acutely to stimulate CFTR already expressed on the membrane surface. In this protocol, the cells are incubated at 27° C. for 24 hours to homogeneously boost F508del CFTR expression in the cell membrane (low temperature correction), washed with PBS, treated with test compound, and CFTR activity is stimulated with forskolin for 1-2 hr. Measurement of ion flux is initiated by addition of iodide-containing buffer, and YFP quenching is kinetically recorded using a 384-well HTS plate reader, such as the Hamamatsu FDSS-6000.
YFP fluorescence intensity values are acquired at high speed over a 1 min time course before and after iodide buffer is injected to the assay cells. Iodide enters the cells via active CFTR channels in the plasma membrane, and quenches the YFP fluorescence. The rate of fluorescence quenching is proportionate to total CFTR activity in the cell membrane. […]

T1 sequence (P13569 with tags, fused parts or gaps DEL508-508): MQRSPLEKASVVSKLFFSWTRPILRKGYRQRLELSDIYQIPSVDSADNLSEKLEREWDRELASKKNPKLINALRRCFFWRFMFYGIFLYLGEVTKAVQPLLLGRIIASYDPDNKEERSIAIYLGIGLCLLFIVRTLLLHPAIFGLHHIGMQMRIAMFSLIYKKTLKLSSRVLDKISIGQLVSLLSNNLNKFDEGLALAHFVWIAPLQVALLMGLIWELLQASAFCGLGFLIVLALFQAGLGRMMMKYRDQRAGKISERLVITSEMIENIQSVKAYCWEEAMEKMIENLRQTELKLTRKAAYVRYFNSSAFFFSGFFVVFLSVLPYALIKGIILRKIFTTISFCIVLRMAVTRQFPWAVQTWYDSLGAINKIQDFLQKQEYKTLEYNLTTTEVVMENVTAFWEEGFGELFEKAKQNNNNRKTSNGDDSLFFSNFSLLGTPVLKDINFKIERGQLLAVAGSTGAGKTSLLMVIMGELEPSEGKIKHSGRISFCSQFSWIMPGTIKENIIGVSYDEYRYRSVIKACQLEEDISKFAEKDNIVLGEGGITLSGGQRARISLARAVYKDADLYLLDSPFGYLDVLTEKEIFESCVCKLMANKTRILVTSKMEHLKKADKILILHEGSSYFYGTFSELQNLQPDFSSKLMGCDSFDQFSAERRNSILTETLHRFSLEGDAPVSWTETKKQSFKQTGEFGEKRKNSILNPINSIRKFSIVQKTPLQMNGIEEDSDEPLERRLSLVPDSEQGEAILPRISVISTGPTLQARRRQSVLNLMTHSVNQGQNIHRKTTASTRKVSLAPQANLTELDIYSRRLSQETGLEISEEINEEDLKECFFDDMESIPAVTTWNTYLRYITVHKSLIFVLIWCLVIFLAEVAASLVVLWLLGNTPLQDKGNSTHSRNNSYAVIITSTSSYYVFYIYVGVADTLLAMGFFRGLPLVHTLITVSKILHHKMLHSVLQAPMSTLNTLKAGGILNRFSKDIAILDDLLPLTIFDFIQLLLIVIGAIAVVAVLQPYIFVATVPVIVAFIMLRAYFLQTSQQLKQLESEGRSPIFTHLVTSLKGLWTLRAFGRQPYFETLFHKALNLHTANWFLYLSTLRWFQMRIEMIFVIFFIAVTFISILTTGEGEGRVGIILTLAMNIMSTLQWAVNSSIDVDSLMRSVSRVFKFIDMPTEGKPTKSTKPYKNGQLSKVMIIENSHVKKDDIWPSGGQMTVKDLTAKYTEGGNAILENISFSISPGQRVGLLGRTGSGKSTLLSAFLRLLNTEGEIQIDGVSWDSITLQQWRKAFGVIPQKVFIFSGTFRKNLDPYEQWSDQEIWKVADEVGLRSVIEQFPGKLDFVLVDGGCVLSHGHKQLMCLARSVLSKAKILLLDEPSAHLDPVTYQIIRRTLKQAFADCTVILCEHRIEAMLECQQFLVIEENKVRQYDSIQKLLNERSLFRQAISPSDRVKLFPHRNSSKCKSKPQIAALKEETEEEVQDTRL

Row | SMILES | Emax [%] | EC50 [µM]
1 | COc1cc2c(=O)n(CC(=O)N(C)c3ccc4c(c3)OC(F)(F)O4)nc(-c3cccc(C#N)c3)c2cc1Cl [Example 96, 2-(6-chloro-4-(3-cyanophenyl)-7-methoxy-1-oxophthalazin-2(1H)-yl)-N-(2,2-difluorobenzo[d][1,3]dioxol-5-yl)-N-methylacetamide] | > 80 | < 10
2 | COc1ccc(N(C)C(=O)Cn2nc(Cc3cccnc3)c3ccccc3c2=O)cc1 [Example 27, N-(4-methoxyphenyl)-N-methyl-2-(1-oxo-4-(pyridin-3-ylmethyl)phthalazin-2(1H)-yl)acetamide] | 30 to 80 | 
3 | CCN(C(=O)Cn1ncc2c(c1=O)c1ccccc1n2Cc1ccccc1)c1ccc2c(c1)OC(F)(F)O2 [Example 133, 2-(5-benzyl-1-oxo-1H-pyridazino[4,5-b]indol-2(5H)-yl)-N-(2,2-difluorobenzo[d][1,3]dioxol-5-yl)-N-ethylacetamide] | 30 to 80 | 
4 | CCN(C(=O)c1nn(-c2ccc(C)cc2)c(=O)c2c1c1ccccc1n2Cc1ccccn1)c1ccccc1 [Example 226, N-ethyl-4-oxo-N-phenyl-5-(pyridin-2-ylmethyl)-3-(p-tolyl)-4,5-dihydro-3H-pyridazino[4,5-b]indole-1-carboxamide] | 30 to 80 | 
5 | CCc1ccc(N(CC)C(=O)Cn2nc(-c3ccccc3)c3ccccc3c2=O)cc1 [Example 1, N-ethyl-N-(4-ethylphenyl)-2-(1-oxo-4-phenylphthalazin-2(1H)-yl)acetamide] | 10 to 30 | 
6 | Cc1nc2ccc(N(C)C(=O)Cn3ncc4c(c3=O)c3ccccc3n4Cc3ccc(C#N)cc3)cc2o1 [Example 149, 2-(5-(4-cyanobenzyl)-1-oxo-1,5-dihydro-2H-pyridazino[4,5-b]indol-2-yl)-N-methyl-N-(2-methylbenzo[d]oxazol-6-yl)acetamide] | 30 to 80 | < 10
7 | Cn1c2ccccc2c2c(-c3ccccc3)nn(C3CCCCC3)c(=O)c21 [Example 241, 3-cyclohexyl-5-methyl-1-phenyl-3,5-dihydro-4H-pyridazino[4,5-b]indol-4-one] | 30 to 80 | < 10
8 | CCN(C(=O)Cn1nc(Cc2cccnc2)c2ccccc2c1=O)c1ccc2c(c1)OC(F)(F)O2 [Example 26, N-(2,2-difluorobenzo[d][1,3]dioxol-5-yl)-N-ethyl-2-(1-oxo-4-(pyridin-3-ylmethyl)phthalazin-2(1H)-yl)acetamide] | 30 to 80 | 
9 | CCN(C(=O)Cn1nc(Cc2cccnc2)c2ccc(C(C)(C)C)cc2c1=O)c1ccc2c(c1)OC(F)(F)O2 [Example 50, 2-(7-(tert-butyl)-1-oxo-4-(pyridin-3-ylmethyl)phthalazin-2(1H)-yl)-N-(2,2-difluorobenzo[d][1,3]dioxol-5-yl)-N-ethylacetamide] | > 80 | 

Other lines, results leading:

Row | Emax [%] | EC50 [µM] | SMILES
10 | 30 to 80 |  | CCN(C(=O)c1nn(-c2ccc(C)cc2)c(=O)c2[nH]c3ccccc3c12)c1ccccc1 [Example 220, N-Ethyl-4-oxo-N-phenyl-3-p-tolyl-4,5-dihydro-3H-pyridazino[4,5-b]indole-1-carboxamide]
11 | 10 to 30 | > 20 | CCN(C(=O)c1nn(CC(C)(C)C)c(=O)c2c1c1ccccc1n2C)c1ccccc1 [Example 217, N-ethyl-5-methyl-3-neopentyl-4-oxo-N-phenyl-4,5-dihydro-3H-pyridazino[4,5-b]indole-1-carboxamide]
12 | 30 to 80 |  | CCN(C(=O)c1nn(C(C)C)c(=O)c2c1c1ccccc1n2C)c1cc(Cl)ccc1C#N [Example 205, N-(5-chloro-2-cyanophenyl)-N-ethyl-3-isopropyl-5-methyl-4-oxo-4,5-dihydro-3H-pyridazino[4,5-b]indole-1-carboxamide]
13 | 30 to 80 | < 10 | CCN(CC)C(=O)c1nn(CC(=O)N(CC)c2cccc(Cl)c2)c(=O)c2c1c1ccccc1n2C [Example 213, 3-(2-((3-chlorophenyl)(ethyl)amino)-2-oxoethyl)-N,N-diethyl-5-methyl-4-oxo-4,5-dihydro-3H-pyridazino[4,5-b]indole-1-carboxamide]
